Measurements from patent publication US11986531B2, “Compounds and methods for the targeted degradation of rapidly accelerated fibrosarcoma polypeptides” (ARVINAS OPERATIONS, INC., priority 2016, dated 2024).

System: BRAF mutants (Class 1, Class 2 and Class 3)
Assay: targeted degradation of BRAF mutants (summary of FIGS. 4-10)
Type: cell-based
Conditions: BRAF mutants sensitive (Class 1) and insensitive (Class 2 and Class 3) to vemurafenib

CCCS(=O)(=O)Nc1ccc(F)c(C(=O)c2c[nH]c3ncc(-c4ccc(N5CCN(CC(=O)N[C@H](C(=O)N6C[C@H](O)C[C@H]6C(=O)NCc6ccc(-c7scnc7C)cc6)C(C)(C)C)CC5)cc4)cc23)c1F [compound 512, (2S,4R)-1-((S)-2-(2-(4-(4-(3-(2,6-difluoro-3-(propylsulfonamido)benzoyl)-1H-pyrrolo[2,3-b]pyridin-5-yl)phenyl)piperazin-1-yl)acetamido)-3,3-dimethylbutanoyl)-4-hydroxy-N-(4-(4-methylthiazol-5-yl)benzyl)pyrrolidine-2-carboxamide]
targeted degradation of BRAF mutants: induces targeted degradation of BRAF mutants sensitive (Class 1) and insensitive (Class 2 and Class 3) to vemurafenib
